# In PubChem BioAssay (NCI):
#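 Tested at 5 concentrations; 48 h exposure; 96-well plates; endpoints linearly interpolated, else capped at highest concentration. TGI marks complete inhibition of growth.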
# Legend:
# Test in all cases: NCI-60 cell line screen, 48 h
# HCT-116 colon = system: HCT-116 colon
# LOX IMVI melanoma = system: LOX IMVI melanoma
# NCI-H23 lung = system: NCI-H23 lung
# ACHN renal = system: ACHN renal
# DU-145 prostate = system: DU-145 prostate
# SK-MEL-5 melanoma = system: SK-MEL-5 melanoma
# SNB-19 CNS = system: SNB-19 CNS
# OVCAR-5 ovarian = system: OVCAR-5 ovarian
# NCI-H522 lung = system: NCI-H522 lung
# HT29 colon = system: HT29 colon
# SK-MEL-28 melanoma = system: SK-MEL-28 melanoma
# MCF7 breast = system: MCF7 breast
# BT-549 breast = system: BT-549 breast
# MALME-3M melanoma = system: MALME-3M melanoma
# RXF 393 renal = system: RXF 393 renal
# UACC-62 melanoma = system: UACC-62 melanoma
# SF-539 CNS = system: SF-539 CNS
# OVCAR-3 ovarian = system: OVCAR-3 ovarian
# UO-31 renal = system: UO-31 renal
# KM12 colon = system: KM12 colon
# NCI-H460 lung = system: NCI-H460 lung
# TK-10 renal = system: TK-10 renal
# HOP-62 NSCLC = system: HOP-62 NSCLC
# T-47D breast = system: T-47D breast
# SNB-75 CNS = system: SNB-75 CNS
# HL-60(TB) leukemia = system: HL-60(TB) leukemia
# M14 melanoma = system: M14 melanoma
# MDA-N = system: MDA-N
# HCT-15 colon = system: HCT-15 colon
# MDA-MB-435 = system: MDA-MB-435
# HS 578T breast = system: HS 578T breast
# IGROV1 ovarian = system: IGROV1 ovarian
# 786-0 renal = system: 786-0 renal
# MDA-MB-231 breast = system: MDA-MB-231 breast
# UACC-257 melanoma = system: UACC-257 melanoma
# SF-295 CNS = system: SF-295 CNS
# SN12C renal = system: SN12C renal
# EKVX NSCLC = system: EKVX NSCLC
# NCI/ADR-RES ovarian = system: NCI/ADR-RES ovarian
# A549 NSCLC = system: A549 NSCLC
# PC-3 prostate = system: PC-3 prostate
# COLO 205 colon = system: COLO 205 colon
# OVCAR-8 ovarian = system: OVCAR-8 ovarian
# SK-MEL-2 melanoma = system: SK-MEL-2 melanoma
# CCRF-CEM leukemia = system: CCRF-CEM leukemia
# RPMI-8226 leukemia = system: RPMI-8226 leukemia
# SF-268 CNS = system: SF-268 CNS
# HOP-92 NSCLC = system: HOP-92 NSCLC
# OVCAR-4 ovarian = system: OVCAR-4 ovarian
# SW-620 colon = system: SW-620 colon
# U251 CNS = system: U251 CNS
# HCC-2998 colon = system: HCC-2998 colon
# SR leukemia = system: SR leukemia
# CAKI-1 renal = system: CAKI-1 renal
# A498 renal = system: A498 renal
# K-562 leukemia = system: K-562 leukemia
# MOLT-4 leukemia = system: MOLT-4 leukemia
# NCI-H226 lung = system: NCI-H226 lung
# SK-OV-3 ovarian = system: SK-OV-3 ovarian
structure (smiles),measurement,setting,value
COc1ccc(C2N(c3ccc(F)c([N+](=O)[O-])c3)C(=O)N3C(c4ccc(OC)cc4)N(c4ccc(F)c([N+](=O)[O-])c4)C(=O)N23)cc1 (configuration not stated),TGI,HCT-116 colon,> 100 µM
same,TGI,LOX IMVI melanoma,> 100 µM
same,TGI,NCI-H23 lung,> 100 µM
same,TGI,ACHN renal,> 100 µM
same,TGI,DU-145 prostate,> 100 µM
same,TGI,SK-MEL-5 melanoma,> 100 µM
same,TGI,SNB-19 CNS,> 100 µM
same,TGI,OVCAR-5 ovarian,> 100 µM
same,TGI,NCI-H522 lung,> 100 µM
same,TGI,HT29 colon,> 100 µM
same,TGI,SK-MEL-28 melanoma,> 100 µM
same,TGI,MCF7 breast,> 100 µM
same,TGI,BT-549 breast,> 100 µM
same,TGI,MALME-3M melanoma,> 100 µM
same,TGI,RXF 393 renal,> 100 µM
same,TGI,UACC-62 melanoma,> 100 µM
same,TGI,SF-539 CNS,> 100 µM
same,TGI,OVCAR-3 ovarian,> 100 µM
same,TGI,UO-31 renal,> 100 µM
same,TGI,KM12 colon,> 100 µM
same,TGI,NCI-H460 lung,> 100 µM
same,TGI,TK-10 renal,> 100 µM
same,TGI,HOP-62 NSCLC,> 100 µM
same,TGI,T-47D breast,> 100 µM
same,TGI,SNB-75 CNS,> 100 µM
same,TGI,HL-60(TB) leukemia,> 100 µM
same,TGI,M14 melanoma,> 100 µM
same,TGI,MDA-N,> 100 µM
same,TGI,HCT-15 colon,> 100 µM
same,TGI,MDA-MB-435,> 100 µM
same,TGI,HS 578T breast,> 100 µM
same,TGI,IGROV1 ovarian,> 100 µM
same,TGI,786-0 renal,> 100 µM
same,TGI,MDA-MB-231 breast,> 100 µM
same,TGI,UACC-257 melanoma,> 100 µM
same,TGI,SF-295 CNS,> 100 µM
same,TGI,SN12C renal,> 100 µM
same,TGI,EKVX NSCLC,> 100 µM
same,TGI,NCI/ADR-RES ovarian,> 100 µM
same,TGI,A549 NSCLC,> 100 µM
same,TGI,PC-3 prostate,> 100 µM
same,TGI,COLO 205 colon,> 100 µM
same,TGI,OVCAR-8 ovarian,> 100 µM
same,TGI,SK-MEL-2 melanoma,> 100 µM
same,TGI,CCRF-CEM leukemia,> 100 µM
same,TGI,RPMI-8226 leukemia,> 100 µM
same,TGI,SF-268 CNS,> 100 µM
same,TGI,HOP-92 NSCLC,> 100 µM
same,TGI,OVCAR-4 ovarian,> 100 µM
same,TGI,SW-620 colon,> 100 µM
same,TGI,U251 CNS,> 100 µM
same,TGI,HCC-2998 colon,> 100 µM
same,TGI,SR leukemia,> 100 µM
same,TGI,CAKI-1 renal,> 100 µM
same,TGI,A498 renal,> 100 µM
NC(=O)SCC(=O)Nc1ccc2cccc3c2c1CC3,TGI,HCT-116 colon,36 µM
same,TGI,LOX IMVI melanoma,21.6 µM
same,TGI,NCI-H23 lung,59.9 µM
same,TGI,ACHN renal,44.7 µM
same,TGI,DU-145 prostate,> 100 µM
same,TGI,SK-MEL-5 melanoma,75.9 µM
same,TGI,SNB-19 CNS,> 100 µM
same,TGI,OVCAR-5 ovarian,52 µM
same,TGI,NCI-H522 lung,> 100 µM
same,TGI,HT29 colon,88.7 µM
same,TGI,MCF7 breast,29.6 µM
same,TGI,BT-549 breast,34.3 µM
same,TGI,MALME-3M melanoma,> 100 µM
same,TGI,RXF 393 renal,54.4 µM
same,TGI,UACC-62 melanoma,37.5 µM
same,TGI,SF-539 CNS,34.6 µM
same,TGI,OVCAR-3 ovarian,> 100 µM
same,TGI,UO-31 renal,> 100 µM
same,TGI,KM12 colon,> 100 µM
same,TGI,TK-10 renal,69.8 µM
same,TGI,HOP-62 NSCLC,> 100 µM
same,TGI,T-47D breast,95.9 µM
same,TGI,SNB-75 CNS,> 100 µM
same,TGI,HL-60(TB) leukemia,28.3 µM
same,TGI,M14 melanoma,> 100 µM
same,TGI,MDA-N,47.2 µM
same,TGI,HCT-15 colon,> 100 µM
same,TGI,MDA-MB-435,33.6 µM
same,TGI,HS 578T breast,> 100 µM
same,TGI,K-562 leukemia,> 100 µM
same,TGI,IGROV1 ovarian,> 100 µM
same,TGI,786-0 renal,42.8 µM
same,TGI,MDA-MB-231 breast,27.4 µM
same,TGI,UACC-257 melanoma,51.3 µM
same,TGI,SF-295 CNS,> 100 µM
same,TGI,SN12C renal,45.6 µM
same,TGI,EKVX NSCLC,> 100 µM
same,TGI,NCI/ADR-RES ovarian,> 100 µM
same,TGI,A549 NSCLC,> 100 µM
same,TGI,PC-3 prostate,> 100 µM
same,TGI,COLO 205 colon,> 100 µM
same,TGI,OVCAR-8 ovarian,> 100 µM
same,TGI,SK-MEL-2 melanoma,47.1 µM
same,TGI,CCRF-CEM leukemia,> 100 µM
same,TGI,RPMI-8226 leukemia,49.2 µM
same,TGI,SF-268 CNS,44.8 µM
same,TGI,HOP-92 NSCLC,4.61 µM
same,TGI,OVCAR-4 ovarian,56.8 µM
same,TGI,SW-620 colon,24.6 µM
same,TGI,U251 CNS,20.5 µM
same,TGI,HCC-2998 colon,> 100 µM
same,TGI,SR leukemia,32.9 µM
same,TGI,CAKI-1 renal,91.9 µM
same,TGI,A498 renal,> 100 µM
same,TGI,MOLT-4 leukemia,63.1 µM
COc1cccc2c1-c1ccccc1[C@H](Nc1ccccc1)[C@@]2(C)O,TGI,HCT-116 colon,15 µM
same,TGI,LOX IMVI melanoma,28 µM
same,TGI,NCI-H23 lung,23.2 µM
same,TGI,ACHN renal,21.6 µM
same,TGI,DU-145 prostate,17.7 µM
same,TGI,SK-MEL-5 melanoma,14.1 µM
same,TGI,SNB-19 CNS,19.3 µM
same,TGI,OVCAR-5 ovarian,28.2 µM
same,TGI,NCI-H522 lung,8.49 µM
same,TGI,HT29 colon,14 µM
same,TGI,SK-MEL-28 melanoma,26.7 µM
same,TGI,MCF7 breast,17.2 µM
same,TGI,NCI-H226 lung,15.6 µM
same,TGI,BT-549 breast,23.3 µM
same,TGI,MALME-3M melanoma,22.1 µM
same,TGI,RXF 393 renal,11 µM
same,TGI,UACC-62 melanoma,21.6 µM
same,TGI,SF-539 CNS,11.6 µM
same,TGI,OVCAR-3 ovarian,7.85 µM
same,TGI,UO-31 renal,16.9 µM
same,TGI,KM12 colon,15.6 µM
same,TGI,NCI-H460 lung,14 µM
same,TGI,TK-10 renal,22.1 µM
same,TGI,HOP-62 NSCLC,19 µM
same,TGI,T-47D breast,30.2 µM
same,TGI,SNB-75 CNS,6.85 µM
same,TGI,HL-60(TB) leukemia,26.8 µM
same,TGI,M14 melanoma,14.8 µM
same,TGI,MDA-N,5.25 µM
same,TGI,HCT-15 colon,18.9 µM
same,TGI,MDA-MB-435,6.14 µM
same,TGI,HS 578T breast,32 µM
same,TGI,K-562 leukemia,> 100 µM
same,TGI,786-0 renal,20.2 µM
same,TGI,MDA-MB-231 breast,24.3 µM
same,TGI,UACC-257 melanoma,19.7 µM
same,TGI,SF-295 CNS,15.8 µM
same,TGI,SN12C renal,16.8 µM
same,TGI,EKVX NSCLC,25.1 µM
same,TGI,NCI/ADR-RES ovarian,15.2 µM
same,TGI,A549 NSCLC,22.2 µM
same,TGI,PC-3 prostate,19 µM
same,TGI,COLO 205 colon,10.4 µM
same,TGI,OVCAR-8 ovarian,31 µM
same,TGI,SK-MEL-2 melanoma,19.9 µM
same,TGI,CCRF-CEM leukemia,50.9 µM
same,TGI,SF-268 CNS,21.1 µM
same,TGI,HOP-92 NSCLC,26 µM
same,TGI,OVCAR-4 ovarian,25.7 µM
same,TGI,SW-620 colon,30 µM
same,TGI,U251 CNS,16.3 µM
same,TGI,HCC-2998 colon,19.7 µM
same,TGI,SR leukemia,22.9 µM
same,TGI,CAKI-1 renal,17.5 µM
same,TGI,A498 renal,22 µM
same,TGI,SK-OV-3 ovarian,21.3 µM
same,TGI,MOLT-4 leukemia,> 100 µM
